Measured values published in patent US5599548A, “Skin care compositions containing fatty acid amides and retinol or retinyl ester” (priority 1995, dated 1997).
“Also recorded” adds a separate entry of the source. Where two headings read alike, the source gives them in different places.

Assays:
Human keratinocytes = assay: 3H-Thymidine incorporation (keratinocyte proliferation); type: cell-based; settings: for activity at 0.001 µM / activity at 0.01 µM / activity at 1 µM / activity at 0.1 µM: Homo sapiens, Keratinocyte, 24 h; for activity at 1 µM: 10^-6 M; for activity at 0.1 µM: 10^-7 M
Method in brief: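 Neonatal foreskin keratinocytes (second passage, serum-free medium) were plated at 40,000 cells/well and grown to 60–70% confluence. Compounds were added in triplicate 24 h after a medium change, with 1 μCi 3H-thymidine 4 h later, followed by a further 24 h incubation. TCA-precipitated label was counted by liquid scintillation and expressed as DPM/μg protein.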

[1] = tested on: TGase I (keratinocyte transglutaminase level); assay: Transglutaminase (TGase I) ELISA assay (keratinocyte differentiation); type: cell-based, human
Method in brief: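 Neonatal foreskin keratinocytes plated at 3,000 cells/well, treated with compounds after 4 days for 72 h, then freeze-fractured. TGase I measured by ELISA (mouse anti-human TGase primary, peroxidase anti-mouse secondary, o-phenylene diamine substrate, A492). Secondary-only background was subtracted; values are means ±s.d. of replicates.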

[2] = Table 7A, n = 9, read-out: mean Thymidine incorp/μg protein ± s.d
[3] = Table 7A, n = 9, read-out: thymidine incorporation, % control

For `CCCCC/C=C\C/C=C\CCCCCCCC(=O)N(CCO)CCO` [linoleoyl-DEA, Linoleoyl-Diethanolamide], the activity at 0.001 µM (Human keratinocytes; Table 2A, RA, ROH 2.5 × 10^-8 M, linoleoyl-DEA 10^-9 M, alone or combined, n = 9, read-out: thymidine incorporation, % control) was 105%, the activity at 0.001 µM (Human keratinocytes; Table 2A, RA, ROH 2.5 × 10^-8 M, linoleoyl-DEA 10^-9 M, alone or combined, normalized to ethanol control, n = 9, read-out: mean Thymidine incorp./μg protein ± s.d) was 105 ± 15.8% and the activity at 0.01 µM (Human keratinocytes; Table 3A, RA 2.5 × 10^-9 M, RP 2.5 × 10^-7 M, linoleoyl-DEA 10^-8 M, alone or combined, n = 3, read-out: thymidine incorporation, % control) was 99%. The activity at 1 µM (Human keratinocytes; [2]) was 60.7 ± 8%, the activity at 1 µM (Human keratinocytes; [3]) was 61% and the activity at 0.1 µM (Human keratinocytes; [2]) was 101 ± 7.5%. For the same compound, the activity at 0.1 µM (Human keratinocytes; [3]) was 101%, the activity at 0.01 µM (Human keratinocytes; Table 7A, 10^-8 M, n = 9, read-out: mean Thymidine incorp/μg protein ± s.d) was 114 ± 20.6% and the activity at 0.01 µM (Human keratinocytes; Table 7A, 10^-8 M, n = 9, read-out: thymidine incorporation, % control) was 114%. For the same compound, the activity at 0.001 µM (Human keratinocytes; Table 7A, 10^-9 M, n = 9, read-out: mean Thymidine incorp/μg protein ± s.d) was 105 ± 15.8%, the activity at 0.001 µM (Human keratinocytes; Table 7A, 10^-9 M, n = 9, read-out: thymidine incorporation, % control) was 105% and the “mean Thymidine incorp./μg protein ± s.d” value (Human keratinocytes; Table 3A, RA 2.5 × 10^-9 M, RP 2.5 × 10^-7 M, linoleoyl-DEA 10^-8 M, alone or combined, n = 3) was 1692 ± 48 DPM/μg protein. For the same compound, the “effect on keratinocyte proliferation, in words” value (Human keratinocytes; concentrations as in the respective Example) was “minor, non-significant stimulatory effect on keratinocyte proliferation; also recorded: no effect on keratinocyte proliferation”, the activity at 1 µM ([1]; Homo sapiens, Keratinocyte, 72 h, Table 2B, RA, ROH 2.5 × 10^-7 M, linoleoyl-DEA 10^-6 M, alone or combined, 72 h, n = 9, read-out: TGase (TG1) level, % control) was 59% and the activity at 1 µM ([1]; Homo sapiens, Keratinocyte, Table 3B, RA, RP 2.5 × 10^-7 M, linoleoyl-DEA 10^-6 M, alone or combined, n = 3, read-out: TGase (TG1) level, % control) was 85%. The activity at 1 µM ([1]; Homo sapiens, Keratinocyte, Table 8A, 10^-6 M, n = 3, read-out: TGase, % control) was 87%, the activity at 0.1 µM ([1]; Homo sapiens, Keratinocyte, Table 8A, 10^-7 M, n = 3, read-out: TGase, % control) was 80% and the activity at 0.01 µM ([1]; Homo sapiens, Keratinocyte, Table 8A, 10^-8 M, n = 3, read-out: TGase, % control) was 86%. It also gave an activity at 0.001 µM ([1]; Homo sapiens, Keratinocyte, Table 8A, 10^-9 M, n = 3, read-out: TGase, % control) of 85%, an activity at 1 µM ([1]; Homo sapiens, Keratinocyte, Table 8B, 10^-6 M, n = 3, read-out: TGase, % control) of 37% and an activity at 0.0001 µM ([1]; Homo sapiens, Keratinocyte, Table 8B, 10^-10 M, n = 3, read-out: TGase, % control) of 66%. The “mean TGase ± s.d” value ([1]; Table 2B, RA, ROH 2.5 × 10^-7 M, linoleoyl-DEA 10^-6 M, alone or combined, 72 h, normalized to ethanol control, n = 9) was 0.594 ± 0.773, the “mean TGase ± s.d” value ([1]; Table 3B, RA, RP 2.5 × 10^-7 M, linoleoyl-DEA 10^-6 M, alone or combined, n = 3) was 0.186 ± 0.058 and the “mean TGase ± s.d” value ([1]; Table 8A, 10^-6 M, n = 3) was 0.186 ± 0.058. For the same compound, the “mean TGase ± s.d” value ([1]; Table 8A, 10^-7 M, n = 3) was 0.175 ± 0.059, the “mean TGase ± s.d” value ([1]; Table 8A, 10^-8 M, n = 3) was 0.188 ± 0.046 and the “mean TGase ± s.d” value ([1]; Table 8A, 10^-9 M, n = 3) was 0.185 ± 0.031. The “mean TGase ± s.d” value ([1]; Table 8B, 10^-6 M, n = 3) was 0.037 ± 0.008 and the “mean TGase ± s.d” value ([1]; Table 8B, 10^-10 M, n = 3) was 0.080 ± 0.030.
